In patent US5232941A, “Caffeic acid derivatives and pharmaceutical compositions containing the same” (Suntory Limited, priority 1990, dated 1993):

What was measured:
12-lipoxygenase [1] = biological target: T1, 12-lipoxygenase (Rattus norvegicus, UniProt F1LQ70); assay: 12-Lipoxygenase Inhibition Activity (In Vitro), 12-HETE production by rat platelet enzyme solution; assay type: biochemical; conditions: [14C]-arachidonic acid, 5 min pre-incubation at 37° C., 5 min reaction, read-out: Inhibition rate (%) of 12-HETE production; for inhibition at 1 µM: 10^-6 M; for inhibition at 0.1 µM: 10^-7 M
T1 construct: the frozen platelet rich plasma was allowed to melt and then subjected to ultrasonic treatment in ice water so that an enzyme solution was obtained; from tissue; host or cells: rat platelets (washed, frozen, sonicated; crude enzyme solution)
T1 sequence (F1LQ70 1-663): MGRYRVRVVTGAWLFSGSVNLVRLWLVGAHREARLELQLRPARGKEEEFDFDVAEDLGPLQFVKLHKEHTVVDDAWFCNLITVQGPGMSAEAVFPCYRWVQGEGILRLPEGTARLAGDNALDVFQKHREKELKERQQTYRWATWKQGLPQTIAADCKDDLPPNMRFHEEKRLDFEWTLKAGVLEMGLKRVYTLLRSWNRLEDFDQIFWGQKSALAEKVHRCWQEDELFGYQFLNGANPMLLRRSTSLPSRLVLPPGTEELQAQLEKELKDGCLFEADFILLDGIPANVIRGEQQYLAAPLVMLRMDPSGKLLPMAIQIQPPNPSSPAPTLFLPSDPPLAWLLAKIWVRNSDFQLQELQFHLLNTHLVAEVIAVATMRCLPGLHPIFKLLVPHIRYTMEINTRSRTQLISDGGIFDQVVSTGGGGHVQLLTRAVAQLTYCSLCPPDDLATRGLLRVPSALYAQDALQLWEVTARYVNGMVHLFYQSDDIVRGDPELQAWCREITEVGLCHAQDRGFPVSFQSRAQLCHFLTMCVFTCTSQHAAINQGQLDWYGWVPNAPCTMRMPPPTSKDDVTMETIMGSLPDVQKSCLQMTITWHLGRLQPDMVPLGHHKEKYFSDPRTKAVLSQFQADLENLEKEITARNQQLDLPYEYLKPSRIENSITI
Procedure: The 12-lipoxygenase inhibition activity of each test compound according to the present invention was measured in the following manner.
Firstly, blood was collected from the heart of a rat (while using sodium citrate as an anticoagulant), and platelet rich plasma was prepared by a method known per se in the art. The platelet rich plasma was washed twice with a isotonic buffer (A) [134 mM of NaCl, 5 mM of D-glucose, 1 mM of EDTA, 1 mM of EGTA, 15 mM of tris-HCl (pH 7.4)] and was then frozen and stored at -80° C. Prior to a pharmacological test, the frozen platelet rich plasma was allowed to melt and then subjected to ultrasonic treatment in ice water so that an enzyme solution was obtained. To the isotonic buffer (A), 1 mM of GSH, the test compound (adjusted to have the final concentrations of 1 μM and 0.1 μM) and the enzyme solution (300-500 μg of protein) were added. Subsequent to pre-incubation at 37° C. for 5 minutes, [^14 C]-arachidonic acid (0.05 μCi) (final concentration: […]) was added to react it for 5 minutes. After the reaction was terminated, the reaction mixture was spread over a thin layer plate of silica gel to conduct autoradiography. 12-HETE was identified and a reduction in its production was determined as an index for its 12-lipoxygenase inhibition activity.

[2] = test system: 12-Lipoxygenase in platelets; assay: 12-Lipoxygenase Inhibition Activity in Platelets (Extro Vivo); parameters: species or system SD rat; conditions: 1.0 mg/kg i.v., blood 10 min after administration; base preparation group = 100%
Procedure: Under anesthesia with pentobarbital, an SD rat (8 week-old, male) was intravenously administered with a polyethylene glycol solution containing 1.0 mg/kg of a test compound. Ten minutes after the administration, blood was collected from the abdominal vena cava, and the inhibitory activity was measured as in the above test (1).
Setting at 100% the amount of 12-HETE of the group in which a base preparation was administered instead of the drugs, the results, namely, the amount of 12-HETE obtained when each test drug was administered was indicated in terms of %.

12-lipoxygenase [3] = conditions: conventionally known compound; cited from earlier work

Row | Compound | inhibition at 1 µM (12-lipoxygenase [1]) [%] | inhibition at 0.1 µM (12-lipoxygenase [1]) [%] | inhibitory effect on amount of 12-HETE [2] [%] | 12-lipoxygenase inhibitory action (12-lipoxygenase [3])
1 | CCOC(=O)Oc1ccc(C=C(C#N)C(=O)OCCc2ccccc2)cc1OC(=O)OCC [Compound 1, phenethyl 2-cyano-3-(3,4-diethoxycarbonyloxyphenyl)-2-propenoate] | 85.4 | 52.9 | 30 | –
2 | CCOC(=O)Oc1ccc(C=C(C#N)C(=O)OCC)cc1OC(=O)OCC [Compound 6, ethyl 2-cyano-3-(3,4-diethoxycarbonyloxyphenyl)-2-propenoate] | – | 60.3 | – | –
3 | CCC[C@H](OC(=O)C(C#N)=Cc1ccc(OC(=O)OCC)c(OC(=O)OCC)c1)c1ccccc1 [Compound 7, (S)-(-)-1-phenylbutyl 2-cyano-3-(3,4-diethoxycarbonyloxyphenyl)-2-propenoate] | 75.6 | 40.8 | – | –
4 | CCC[C@@H](OC(=O)C(C#N)=Cc1ccc(OC(=O)OCC)c(OC(=O)OCC)c1)c1ccccc1 [Compound 8, (R)-(+)-1-phenylbutyl 2-cyano-3-(3,4-diethoxycarbonyloxyphenyl)-2-propenoate] | 65.1 | 9.4 | – | –
5 | CCOC(=O)Oc1ccc(C=C(C#N)C(=O)OC(C)Cc2ccccc2)cc1OC(=O)OCC (centres unmarked) [Compound 9, 1-methyl-2-phenylethyl 2-cyano-3-(3,4-diethoxycarbonyloxyphenyl)-2-propenoate] | 71.8 | 4.2 | – | –
6 | CCOC(=O)Oc1ccc(C=C(C#N)C(=O)OCCc2ccsc2)cc1OC(=O)OCC [Compound 10, 2-(3-thienyl)-ethyl 2-cyano-3-(3,4-diethoxycarbonyloxyphenyl)-2-propenoate] | 79.3 | 38.7 | – | –
7 | CCOC(=O)Oc1ccc(C=C(C#N)C(=O)OCc2ccco2)cc1OC(=O)OCC [Compound 11, 2-furylmethyl 2-cyano-3-(3,4-diethoxycarbonyloxyphenyl)-2-propenoate] | 53.8 | 23.5 | – | –
8 | CCOC(=O)Oc1ccc(C=C(C#N)C(=O)OCCCc2ccccn2)cc1OC(=O)OCC [Compound 12, 3-(2-pyridyl)-propyl 2-cyano-3-(3,4-diethoxycarbonyloxyphenyl)-2-propenoate] | 68.4 | 16.3 | – | –
9 | CCOC(=O)Oc1ccc(C=C(C#N)C(=O)OCCCc2cccnc2)cc1OC(=O)OCC [Compound 13, 3-(3-pyridyl)-propyl 2-cyano-3-(3,4-diethoxycarbonyloxyphenyl)-2-propenoate] | 40.8 | < 0 | – | –
10 | CCOC(=O)Oc1ccc(C=C(C#N)C(=O)OCc2ccsc2)cc1OC(=O)OCC [Compound 14, 3-thienylmethyl 2-cyano-3-(3,4-diethoxycarbonyloxyphenyl)-2-propenoate] | 64.6 | 34.6 | – | –
11 | CCOC(=O)Oc1cc(C=C(C#N)C(=O)OCCc2ccccc2)ccc1O [Compound 17, phenethyl 2-cyano-3-(3-ethoxycarbonyloxy-4-hydroxyphenyl)-2-propenoate] | 75.9 | 59.3 | 18 | –
12 | CCOC(=O)Oc1ccc(C=C(C#N)C(=O)OCCc2cccs2)cc1OC(=O)OCC [Compound 18, 2-(2-thienyl)-ethyl 2-cyano-3-(3,4-diethoxycarbonyloxyphenyl)-2-propenoate] | – | 65.8 | – | –
13 | COC(=O)Oc1ccc(C=C(C#N)C(=O)OCCc2cccs2)cc1OC(=O)OC [Compound 19, 2-(2-thienyl)-ethyl 2-cyano-3-(3,4-dimethoxycarbonyloxyphenyl)-2-propenoate] | 50.8 | 4.6 | – | –
14 | CC(C)COC(=O)Oc1ccc(C=C(C#N)C(=O)OCCc2cccs2)cc1OC(=O)OCC(C)C [Compound 20, 2-(2-thienyl)-ethyl 2-cyano-3-(3,4-diisobutoxycarbonyloxyphenyl)-2-propenoate] | 63.4 | 41.2 | – | –
15 | N#CC(=Cc1ccc(OC(=O)OCc2ccccc2)c(OC(=O)OCc2ccccc2)c1)C(=O)OCCc1cccs1 [Compound 21, 2-(2-thienyl)-ethyl 2-cyano-3-(3,4-dibenzyloxycarbonyloxyphenyl)-2-propenoate] | 41.6 | < 0 | – | –
16 | CCCCCCCOC(=O)Oc1ccc(C=C(C#N)C(=O)OCCc2cccs2)cc1OC(=O)OCCCCCCC [Compound 22, 2-(2-thienyl)-ethyl 2-cyano-3-(3,4-diheptoxycarbonyloxyphenyl)-2-propenoate] | 27.6 | 14 | – | –
17 | CCOC(=O)Oc1cc(C=C(C#N)C(=O)OCCc2cccs2)ccc1O [Compound 23, 2-(2-thienyl)-ethyl 2-cyano-3-(3-ethoxycarbonyloxy-4-hydroxyphenyl)-2-propenoate] | 84.5 | 64.5 | – | –
18 | CCOC(=O)Oc1cc(C=C(C#N)C(=O)OCCc2cccs2)cc(OC(=O)OCC)c1OC(=O)OCC [Compound 29, 2-(2-thienyl)-ethyl 2-cyano-3-(3,4,5-triethoxycarbonyloxyphenyl)-2-propenoate] | 59.2 | 25.1 | – | –
19 | N#CC(=Cc1ccc2oc(=O)oc2c1)C(=O)OCCc1cccs1 [Compound 34, 2-(2-thienyl)-ethyl 2-cyano-3-(3,4-cyclic dioxolonylphenyl)-2-propenoate] | – | 91.5 | – | –
20 | N#CC(=Cc1ccc2oc(=O)oc2c1)C(=O)OCCc1ccccc1 [Compound 35, phenethyl 2-cyano-3-(3,4-cyclic dioxolonylphenyl)-2-propenoate] | 82.9 | 56.6 | – | –
21 | N#CC(=Cc1ccc2oc(=O)oc2c1)C(=O)Oc1ccccc1 [Compound 36, phenyl 2-cyano-3-(3,4-cyclic dioxolonylphenyl)-2-propenoate] | – | 75.6 | – | –
22 | O=c1cc(-c2ccccc2)oc2cc(O)c(O)c(O)c12 [baicalein] | – | – | – | 12-lipoxygenase inhibitory action
